Laboratory results taken from doi:10.1101/2024.06.25.600616, “Presynaptic GABAA receptors control integration of nicotinic input onto dopaminergic axons in the striatum” (bioRxiv, 2024).
pIC50: −log10 of the molar value.

Test system: T1, nicotinic acetylcholine receptors (nAChRs) on dopaminergic axons (likely beta2 subunit-containing)
T1 construct: gene Chrnb2; native receptor on dopaminergic axons; with α4 and/or α6 nAChR subunits (native heteromer, not resolved)
Assay: whole-cell axonal recording of ACh-puff depolarizations; IC50 from jGCaMP8s nicotinic component in striatal slices
Set-up: species or system Mus musculus

## C=C(C)[C@@H]1[C@H]2OC(=O)[C@@H]1[C@]1(O)C[C@H]3OC34C(=O)O[C@H]2[C@@]41C.CC(C)(O)[C@@H]1[C@H]2OC(=O)[C@@H]1[C@]1(O)C[C@H]3OC34C(=O)O[C@H]2[C@@]41C (stereo partly shown) [picrotoxin]
  pIC50: 3.97
